For one experiment, the target named is recombinant perforin (UniProt P10820). The format is cell-based. The method, then: Inhibition of perforin-mediated lysis of Jurkat cells.
The ability of the compounds to inhibit the lysis of nucleated (Jurkat T lymphoma) cells in the presence of 0.1% BSA, as measured by release of ^51Cr was measured. Jurkat target cells were labelled by incubation in medium with 100 μCi ^51Cr for one hour. The cells were then washed three times to remove unincorporated isotope and re-suspended at 1×10^5 cells per mL in RPMI buffer supplemented with 0.1% BSA. […] Each data point was performed in triplicate and an IC50 was calculated from the range of concentrations described to above.

Experiment [1] has as its system KHYG-1 NK cell-mediated lysis of K562 cells. In words: Inhibition of KHYG-1 NK cell-mediated lysis of K562 cells (51Cr release). Type of experiment: cell-based. As to conditions: K562 target cells, Effector:Target 2:1, 4 hours at 37° C.; for inhibition at 20 µM: 4 h. The method, then:
Inhibition of KHYG-1 NK Cell-Mediated Lysis of K562 Cells.
Test compounds were added to KHYG-1 cells at various concentrations up to 20 µM and incubated at RT for 20 minutes. 1×10^6 K562 target cells were labelled with 75 μCi ^51Cr in 200 μl RPMI for 90 mins at 37° C., cells were washed as described above and resuspended in 5 ml RPMI+0.1% BSA. 50 μl of ^51Cr labelled K562 leukemia target cells were added to each well of the KHYG-1 plate (Effector:Target 2:1) and incubated at 37° C. for 4 hours. ^51Cr release was assayed using a Skatron Harvesting Press and radioactivity estimated on a Wallac Wizard 1470 Automatic Gamma counter (Turku, Finland). The percentage of specific cytotoxicity was calculated by the formula: […]

[2] abbreviates: lysis of Jurkat T lymphoma cells by recombinant perforin, 0.1% BSA, 30 min pre-incubation, 4 hours at 37° C.; read-out: Jurkat IC50.
Where [3] appears, read: read-out: Jurkat IC50; lysis of Jurkat T lymphoma cells by recombinant perforin, 0.1% BSA, 30 min pre-incubation, 4 hours at 37° C.

Counter-ions that a name gives are not always drawn. Like-named read-outs stand apart in the source and are kept apart here.

Sequence of recombinant perforin (P10820 whole entry): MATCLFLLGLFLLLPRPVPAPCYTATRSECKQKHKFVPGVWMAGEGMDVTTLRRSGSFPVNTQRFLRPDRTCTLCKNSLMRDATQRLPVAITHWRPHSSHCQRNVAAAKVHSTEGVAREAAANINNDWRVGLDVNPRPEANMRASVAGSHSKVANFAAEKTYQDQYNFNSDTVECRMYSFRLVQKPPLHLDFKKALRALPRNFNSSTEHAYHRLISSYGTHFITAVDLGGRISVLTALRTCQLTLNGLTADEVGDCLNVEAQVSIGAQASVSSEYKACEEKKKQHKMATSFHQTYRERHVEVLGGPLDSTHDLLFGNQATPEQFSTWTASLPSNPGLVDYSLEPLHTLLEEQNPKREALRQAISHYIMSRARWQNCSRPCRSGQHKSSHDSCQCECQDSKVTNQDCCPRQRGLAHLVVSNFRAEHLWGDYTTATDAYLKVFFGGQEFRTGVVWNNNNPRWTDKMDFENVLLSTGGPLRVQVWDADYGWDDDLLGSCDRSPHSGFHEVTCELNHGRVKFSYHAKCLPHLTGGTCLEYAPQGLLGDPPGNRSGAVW

As to `O=C1c2ccc(-c3ccc(-c4cncc(NS(=O)(=O)c5ccc(F)cc5F)c4)s3)cc2CN1CCN1CCOCC1` [Compound 69, 2,4-Difluoro-N-(5-(5-(2-(2-morpholinoethyl)-1-oxoisoindolin-5-yl)thiophen-2-yl)pyridin-3-yl)benzenesulfonamide], at recombinant perforin (setting [2]), the IC50 was determined as 17 µM.

Consider `CN1Cc2cc(-c3ccc(-c4cncc(NS(=O)(=O)c5ccccc5[N+](=O)[O-])c4)s3)ccc2C1=O` [Compound 28, N-(5-(5-(2-Methyl-1-oxoisoindolin-5-yl)thiophen-2-yl)pyridin-3-yl)-2-nitrobenzenesulfonamide], for which the IC50 on recombinant perforin (setting [2]) amounted to 6.65 µM. This compound had an inhibition at 20 µM in experiment [1] of 71%.

Take `CN1Cc2cc(-c3ccc(-c4cncc(NS(=O)(=O)c5ccccc5C#N)c4)s3)ccc2C1=O` [Compound 79.Na, 2-Cyano-N-(5-(5-(2-methyl-1-oxoisoindolin-5-yl)thiophen-2-yl)pyridin-3-yl)benzenesulfonamides]: the IC50 on recombinant perforin (setting [2]) came out at 9.17 µM.

In experiment [1], `COc1ccc(S(=O)(=O)Nc2cncc(-c3ccc(-c4ccc5c(c4)CN(C)C5=O)s3)c2)cc1OC` [Compound 21.Na, 3,4-Dimethoxy-N-(5-(5-(2-methyl-1-oxoisoindolin-5-yl)thiophen-2-yl)pyridin-3-yl)benzenesulfonamide, sodium salt] displayed an inhibition at 20 µM of 31%.

For the compound `CN1Cc2cc(-c3ccc(-c4cnc(F)c(NS(=O)(=O)c5ccccn5)c4)s3)ccc2C1=O` [Compound 90, N-(2-Fluoro-5-(5-(2-methyl-1-oxoisoindolin-5-yl)thiophen-2-yl)pyridin-3-yl)pyridine-2-sulfonamide], the IC50 on recombinant perforin (setting [2]) was found to be 4.1 µM.

For `Cc1cc(C)n(-c2ccc(S(=O)(=O)Nc3cncc(-c4ccc(-c5ccc6c(c5)CN(C)C6=O)s4)c3)cc2)n1` [Compound 80, 4-(3,5-Dimethyl-1H-pyrazol-1-yl)-N-(5-(5-(2-methyl-1-oxoisoindolin-5-yl)thiophen-2-yl)pyridin-3-yl)benzenesulfonamides], the IC50 at recombinant perforin (setting [2]) is 19.1 µM.

The compound `CN1Cc2cc(-c3ccc(-c4cncc(NS(=O)(=O)c5ccc(F)cc5F)c4)s3)ccc2C1=O` [Compound 1, 2,4-Difluoro-N-(5-(5-(2-methyl-1-oxoisoindolin-5-yl)thiophen-2-yl)pyridin-3-yl)benzenesulfonamide] yielded an inhibition at 20 µM in experiment [1] of 46%.

For `Cn1ccc2cc(-c3ccc(-c4cncc(NS(=O)(=O)c5ccc(F)cc5F)c4)s3)ccc21` [Compound 72, 2,4-Difluoro-N-(5-(5-(1-methyl-1H-indol-5-yl)thiophen-2-yl)pyridin-3-yl)benzenesulfonamide], on recombinant perforin (setting [3]), the IC50 was 8.63 µM. The inhibition at 20 µM in experiment [1] is 19 ± 17%.

As to `CN1Cc2cc(-c3ccc(-c4cncc(NS(=O)(=O)c5ccc(F)cc5)c4)s3)ccc2C1=O` [Compound 6, 4-Fluoro-N-(5-(5-(2-methyl-1-oxoisoindolin-5-yl)thiophen-2-yl)pyridin-3-yl)benzene-sulfonamide], on recombinant perforin (setting [2]), the IC50 is 9.65 µM. Besides, 20 µM produced 10% inhibition in experiment [1].

As for `CN1Cc2cc(-c3ccc(-c4cncc(NS(=O)(=O)c5ccc(Cl)cc5)c4)s3)ccc2C1=O` [Compound 11.Na, 4-Chloro-N-(5-(5-(2-methyl-1-oxoisoindolin-5-yl)thiophen-2-yl)pyridin-3-yl)benzenesulfonamide], on recombinant perforin (setting [2]), the IC50 was found to be 8.28 µM. In experiment [1], the inhibition at 20 µM was determined as 14%.

Turning to `CN1Cc2cc(-c3ccc(-c4cncc(NS(=O)(=O)c5ccc(Br)cc5Br)c4)s3)ccc2C1=O` [Compound 75, 2,4-Dibromo-N-(5-(5-(2-methyl-1-oxoisoindolin-5-yl)thiophen-2-yl)pyridin-3-yl)benzenesulfonamides], the IC50 at recombinant perforin (setting [2]) was found to be 2.52 µM. In experiment [1], this compound yielded an inhibition at 20 µM of 49.2 ± 15%.

For the compound `CN1Cc2cc(-c3ccc(-c4ccc(OC(F)(F)F)c(NS(=O)(=O)c5ccccn5)c4)s3)ccc2C1=O` [Compound 63.Na, N-(5-(5-(2-Methyl-1-oxoisoindolin-5-yl)thiophen-2-yl)-2-(trifluoromethoxy)phenyl)pyridine-2-sulfonamide], the IC50 on recombinant perforin (setting [2]) stood at 19.6 µM. The “Inhibition of KHYG-1 at 20 μM (%)” value in experiment [1] (20 µM) came out at 77.07 ± 5%.

Consider `CN1Cc2cc(-c3ccc(-c4cncc(NS(=O)(=O)c5ccc(I)cc5)c4)s3)ccc2C1=O` [Compound 74, 4-Iodo-N-(5-(5-(2-methyl-1-oxoisoindolin-5-yl)thiophen-2-yl)pyridin-3-yl)benzenesulfonamides], for which, on recombinant perforin (setting [2]), the IC50 was 5 µM. Besides, the inhibition at 20 µM in experiment [1] is 15.6 ± 5%.

Take `CN1Cc2cc(-c3ccc(-c4cncc(NS(=O)(=O)c5ccc(-c6cnco6)cc5)c4)s3)ccc2C1=O` [Compound 77, N-(5-(5-(2-Methyl-1-oxoisoindolin-5-yl)thiophen-2-yl)pyridin-3-yl)-4-(oxazol-5-yl)benzenesulfonamides]: the IC50 on recombinant perforin (setting [2]) came out at 3.05 µM. The same compound returned an inhibition at 20 µM in experiment [1] of 38.3 ± 5%.

Regarding `CN1C(=O)Cc2cc(-c3ccc(-c4cncc(NS(=O)(=O)c5ccc(F)cc5F)c4)s3)ccc21` [Compound 66, 2,4-Difluoro-N-(5-(5-(1-methyl-2-oxoindolin-5-yl)thiophen-2-yl)pyridin-3-yl)benzenesulfonamides], on recombinant perforin (setting [3]), the IC50 is 10.2 µM. For the same compound, in experiment [1], at 20 µM the inhibition was 34.3 ± 9%.

For the compound `CN1Cc2cc(-c3ccc(-c4cncc(NS(=O)(=O)c5ccccc5)c4)s3)ccc2C1=O` [Compound 62, N-(5-(5-(2-Methyl-1-oxoisoindolin-5-yl)thiophen-2-yl)pyridin-3-yl)benzenesulphonamide], on recombinant perforin (setting [2]), the IC50 is 8.46 µM. In experiment [1], the inhibition at 20 µM was determined as 9.71 ± 2%.

As for `CN1Cc2cc(-c3ccc(-c4cncc(NS(=O)(=O)c5ccc(F)c(C(F)(F)F)c5)c4)s3)ccc2C1=O` [Compound 89, 4-Fluoro-N-(5-(5-(2-methyl-1-oxoisoindolin-5-yl)thiophen-2-yl)pyridin-3-yl)-3-(trifluoromethyl)benzenesulphonamide], the IC50 on recombinant perforin (setting [2]) stood at 3.75 µM. 20 µM produced 59.9 ± 13% inhibition in experiment [1].

As for `COC(=O)c1cccc(S(=O)(=O)Nc2cncc(-c3ccc(-c4ccc5c(c4)CN(C)C5=O)s3)c2)c1` [Compound 91, Methyl 3-(N-(5-(5-(2-methyl-1-oxoisoindolin-5-yl)thiophen-2-yl)pyridin-3-yl)sulfamoyl)benzoate], the IC50 on recombinant perforin (setting [2]) is 7.77 µM.

Take `CN1Cc2cc(-c3ccc(-c4cncc(NS(=O)(=O)c5ccc(C#N)cc5)c4)s3)ccc2C1=O` [Compound 30, 4-Cyano-N-(5-(5-(2-methyl-1-oxoisoindolin-5-yl)thiophen-2-yl)pyridin-3-yl)benzenesulfonamide]: the IC50 on recombinant perforin (setting [2]) was determined as 5.17 µM. For the same compound, the inhibition at 20 µM in experiment [1] is 49%.

On to `O=C1NCc2cc(-c3ccc(-c4cncc(NS(=O)(=O)c5ccc(F)cc5F)c4)s3)ccc21` [Compound 48, 2,4-Difluoro-N-(5-(5-(1-oxoisoindolin-5-yl)thiophen-2-yl)pyridin-3-yl)benzenesulfonamide], for which, in experiment [1], at 20 µM the inhibition was 35%.

With `COC(=O)c1ccccc1S(=O)(=O)Nc1cncc(-c2ccc(-c3ccc4c(c3)CN(C)C4=O)s2)c1` [Compound 86, Methyl 2-(N-(5-(5-(2-methyl-1-oxoisoindolin-5-yl)thiophen-2-yl)pyridin-3-yl)sulfamoyl)benzoate], the IC50 on recombinant perforin (setting [2]) was found to be 2.9 µM. This compound also had an inhibition at 20 µM in experiment [1] of 2.3 ± 3%.

In the case of `O=C1Cc2cc(-c3ccc(-c4cncc(NS(=O)(=O)c5ccc(F)cc5F)c4)s3)ccc2N1` [Compound 67, 2,4-Difluoro-N-(5-(5-(2-oxoindolin-5-yl)thiophen-2-yl)pyridin-3-yl)benzenesulfonamides], the IC50 at recombinant perforin (setting [3]) was 5.04 µM. Moreover, the inhibition at 20 µM in experiment [1] turned out to be 42.8 ± 10%.

Consider `CCOC(=O)c1ccc(S(=O)(=O)Nc2cncc(-c3ccc(-c4ccc5c(c4)CN(C)C5=O)s3)c2)cc1` [Compound 85, Ethyl 4-(N-(5-(5-(2-methyl-1-oxoisoindolin-5-yl)thiophen-2-yl)pyridin-3-yl)sulfamoyl)benzoate], for which, at recombinant perforin (setting [2]), the IC50 amounted to 19.4 µM.

The compound `O=S(=O)(Nc1cncc(-c2ccc(-c3ccc4[nH]ccc4c3)s2)c1)c1ccc(F)cc1F` [Compound 71, N-(5-(5-(1H-indol-5-yl)thiophen-2-yl)pyridin-3-yl)-2,4-difluorobenzenesulfonamide] registered an inhibition at 20 µM in experiment [1] of 87.7 ± 9%.

Regarding `CN1Cc2cc(-c3ccc(-c4cncc(NS(=O)(=O)c5cccc(Cl)c5F)c4)s3)ccc2C1=O` [Compound 14, 3-Chloro-2-fluoro-N-(5-(5-(2-methyl-1-oxoisoindolin-5-yl)thiophen-2-yl)pyridin-3-yl)benzenesulfonamide], the IC50 at recombinant perforin (setting [2]) was 13 µM.

As for `CN1Cc2cc(-c3ccc(-c4cncc(NS(=O)(=O)c5ccc(F)cc5F)c4)nc3)ccc2C1=O` [Compound 83, 2,4-Difluoro-N-(5-(2-methyl-1-oxoisoindolin-5-yl)-[2,3′-bipyridin]-5′-yl)benzenesulphonamide], the half-maximal inhibitory concentration (IC50) at recombinant perforin (setting [2]) is 8.17 µM.

Take `CN1Cc2cc(-c3ccc(-c4cncc(NC(=S)NC(=O)c5ccc(F)cc5)c4)s3)ccc2C1=O` [Compound 68, 4-Fluoro-N-((5-(5-(2-methyl-1-oxoisoindolin-5-yl)thiophen-2-yl)pyridin-3-yl)carbamothioyl)benzamide]: the IC50 on recombinant perforin (setting [2]) was determined as 15.9 µM.

By IC50 is commonly meant the concentration needed to halve the response being measured. Broadly, the inhibition is the share of the control response that was lost under treatment.

The values are drawn from patent US9896443B2, “Perforin inhibiting benzenesulfonamide compounds, preparation and uses thereof” (Peter MacCallum Cancer Institute, priority 2012, dated 2018).
